# Reference: patent US20140100107A1, “TERNARY FUNGICIDAL COMPOSITIONS COMPRISING A DITHIINO-TETRACARBOXAMIDE FUNGICIDE” (BAYER INTELLECTUAL PROPERTY GMBH, priority 2011, published 2014)
# System: Alternaria solani
# Assay: Alternaria test (tomatoes)/preventive
# Format: in vivo
# Conditions: preventive spray, evaluated 3 days after inoculation
# Method: Alternaria Test (Tomatoes)/Preventive [table] To produce a suitable preparation of active compound, 1 part by weight of active compound is mixed with the stated amounts of solvent and emulsifier, and the concentrate is diluted with water to the desired concentration. To test for preventive activity, young plants are sprayed with the preparation of active compound at the stated rate of application. After the spray coating has dried on, the plants are inoculated with an aqueous spore suspension of Alternaria solani. The plants are then placed in an incubation cabinet at approximately 20° C. and a relative atmospheric humidity of 100%. The test is evaluated 3 days after the inoculation. 0% means an efficacy which corresponds to that of the untreated control while an efficacy of 100% means that no disease is observed.
Compound,Efficacy in % found (activity found) (application rate 10 ppm a.i.) [%],Efficacy in % found (activity found) (application rate 1 ppm a.i.) [%]
"Cn1c(=O)c2sc3c(=O)n(C)c(=O)c3sc2c1=O [(1.1), 2,6-dimethyl-1H,5H-[1,4]dithiino[2,3-c:5,6-c′]dipyrrole-1,3,5,7(2H,6H)-tetrone]",0,–
"O=C(NCCc1ncc(C(F)(F)F)cc1Cl)c1ccccc1C(F)(F)F [(2.6), fluopyram]",–,7
"CC(C)(C)C(O)(CCc1ccc(Cl)cc1)Cn1cncn1 (stereo not drawn) [(3.47), tebuconazole]",–,21
